Reference: ChEMBL document CHEMBL1201862, “PubChem BioAssay data set” (2004)
Several values for one entry are separate records, joined by “and”; a condition that tells them apart may be missing. Identical values can stand only once.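 In this assay, cells in 96-well plates receive the compound at five concentrations for 48 hours. Endpoints are linearly interpolated between the surrounding concentrations. GI50 = concentration required for 50% inhibition of growth.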 Activity calls are given as the source filed them. Rule as the data show it: active = GI50 up to about 1.1 µM and inactive = higher.

Columns and labels:
Assay in all cases: NCI anticancer screen, dose series, 48 h
HT-29 = test system: HT-29
MOLT-4 = test system: MOLT-4
ACHN = test system: ACHN
OVCAR-8 = test system: OVCAR-8
SK-MEL-2 = test system: SK-MEL-2
SW-620 = test system: SW-620
Malme-3M = test system: Malme-3M
BT-549 = test system: BT-549
HCT-15 = test system: HCT-15
SF-539 = test system: SF-539
SK-MEL-5 = test system: SK-MEL-5
NCI-H23 = test system: NCI-H23
PC-3 = test system: PC-3
EKVX = test system: EKVX
M14 = test system: M14
RXF 393 = test system: RXF 393
MDA-N = test system: MDA-N
HOP-92 = test system: HOP-92
OVCAR-5 = test system: OVCAR-5
K562 = test system: K562

Compound	GI50 (HT-29)	GI50 (MOLT-4)	GI50 (ACHN)	GI50 (OVCAR-8)	GI50 (SK-MEL-2)	GI50 (SW-620)	GI50 (Malme-3M)	GI50 (BT-549)	GI50 (HCT-15)	GI50 (SF-539)	GI50 (SK-MEL-5)	GI50 (NCI-H23)	GI50 (PC-3)	GI50 (EKVX)	GI50 (M14)	GI50 (RXF 393)	GI50 (MDA-N)	GI50 (HOP-92)	GI50 (OVCAR-5)	GI50 (K562)
CC(C)C(C)/C=C\C(C)C1CCC2C3=CC=C4CC(O)CCC4(C)C3CCC21C (stereo not drawn)	33.3 µM (inactive)	17.7 µM (inactive)	> 42 µM (inactive)	29.2 µM (inactive)	> 62.1 µM (inactive)	> 49.3 µM (inactive)	> 34.7 µM (inactive)	> 50.4 µM (inactive)	> 42.8 µM	> 44.6 µM (inactive)	23.8 µM (inactive)	> 76.7 µM (inactive)	> 56.2 µM (inactive)	> 39.4 µM (inactive)	> 46.8 µM (inactive)	> 42.5 µM (inactive)	> 46.2 µM (inactive)	5.75 µM (inactive)	> 100 µM (inactive)	26.5 µM (inactive)
O=c1c(-c2ccc(Cl)cc2)nnc2n(Cc3ccccc3)c3ccccc3n12	52.6 µM (inactive)	66.7 µM (inactive)	21.7 µM (inactive)	45.3 µM (inactive)	44.2 µM (inactive)	> 100 µM (inactive)	39.8 µM (inactive)	22 µM (inactive)	> 100 µM	13.6 µM (inactive)	41.1 µM (inactive)	37 µM (inactive)	30.1 µM (inactive)	38.4 µM (inactive)	43.4 µM (inactive)	13.2 µM (inactive)	> 100 µM (inactive)	14.7 µM (inactive)	48.9 µM (inactive)	
CC1(C)OC[C@H](COCOP2(=O)Oc3ccc4ccccc4c3-c3c(ccc4ccccc34)O2)O1	16.4 µM (inactive)	15 µM (inactive)	18 µM (inactive)	25.2 µM (inactive)		15.3 µM (inactive)	21.3 µM (inactive)	16.6 µM (inactive)	15.3 µM	18.8 µM (inactive)	24.4 µM (inactive)	15.6 µM (inactive)	14.2 µM (inactive)	> 10 µM (inactive)	16.3 µM (inactive)	> 10 µM (inactive)	13.5 µM (inactive)	14.6 µM (inactive)	17.8 µM (inactive)	21.8 µM (inactive)
Cc1nc(-c2cc3c(ccc4ccccc43)oc2=O)cs1	> 100 µM (inactive)	> 100 µM (inactive)	63.7 µM (inactive)	35.5 µM (inactive)	> 100 µM (inactive)	> 100 µM (inactive)	76.2 µM (inactive)	23.7 µM (inactive)	> 100 µM	43.3 µM (inactive)	> 100 µM (inactive)		70.8 µM (inactive)	35.8 µM (inactive)	83.9 µM (inactive)	35.8 µM (inactive)	> 100 µM (inactive)	30.2 µM (inactive)	> 100 µM (inactive)	> 100 µM (inactive)
O=C(Cc1nccc2c1[nH]c1ccccc12)OC1C#CCSCC#C/C=C\1 (stereo not drawn)	> 100 µM (inactive)	39.5 µM (inactive)	> 100 µM (inactive)	> 100 µM (inactive)		> 100 µM (inactive)	> 100 µM (inactive)	> 100 µM (inactive)	> 100 µM	> 100 µM (inactive)	> 100 µM (inactive)		> 100 µM (inactive)	64.4 µM (inactive)	> 100 µM (inactive)	> 100 µM (inactive)	> 100 µM (inactive)	> 100 µM (inactive)		43 µM (inactive)
NCCOCC(N)C(=O)O (stereo not drawn)	> 100 µM (inactive)	> 100 µM (inactive)	> 100 µM (inactive)	> 100 µM (inactive)	> 100 µM (inactive)	> 100 µM (inactive)	> 100 µM (inactive)	> 100 µM (inactive)	> 100 µM	> 100 µM (inactive)	> 100 µM (inactive) and > 95.7 µM (inactive)	> 100 µM (inactive)	> 100 µM (inactive)	> 100 µM (inactive)	> 100 µM (inactive)	> 100 µM (inactive)	> 100 µM (inactive)	> 100 µM (inactive)	> 100 µM (inactive)	> 100 µM (inactive)
NC1=C(c2nc(-c3ccccc3)cs2)C(c2ccco2)c2c(c3ccccc3oc2=O)O1 (stereo not drawn)	> 100 µM (inactive)		> 100 µM (inactive)	> 100 µM (inactive)	> 100 µM (inactive)	> 100 µM (inactive)	> 100 µM (inactive)	> 100 µM (inactive)	> 100 µM	> 100 µM (inactive)	> 100 µM (inactive)	> 100 µM (inactive)	> 100 µM (inactive)	> 100 µM (inactive)	> 100 µM (inactive)	40.5 µM (inactive)	> 100 µM (inactive)	53.3 µM (inactive)	> 100 µM (inactive)	> 100 µM (inactive)
